# Entries after “also recorded” stand apart in the source; their conditions may differ.
# Legend:
# [1] = tested on: HSV-1; experiment: Dermal HSV-1 infection in guinea pigs, topical treatment, compared with placebo/vehicle; assay type: in vivo; conditions: guinea pig; for reduction in lesion area (in words) / reduction in lesion number (in words) / reduction in lesion virus titer / skin viral titres (in words): dermal HSV-1, topical, compared to vehicle or to Prodrug 1
# Description: The formulation for Prodrug 1 contained 5% EL-620 EMULPHOR (polyoxyethylated castor oil) (Rhone Poluenc), 5% CARBOPOL (Carboxypolymethylene, sodium salt) (B. F. Goodrich), 10% ethanol and 2% by weight Prodrug 1. The balance of the formulation consisted of water.
# EL-620 EMULPHOR and water were mixed and ultrasonicated to give a clear emulsion, to which the ethanol was added. The prodrug was then added, and the mixture was ultrasonicated. The sodium carbopol was then added to the emulsion and mixed until to homogeneity.
# The placebo was prepared identically to the pharmaceutical compositions except that the prodrugs were omitted.
# Female Hartley outbred guinea pigs, 400 to 450 grams, were obtained from Charles River Breeding Labs, Wilmington, Mass. Animals were anesthetized with 25 mg/kg ketamine and 5 mg/kg xylazine SQ. Hair on the dorsum from the shoulders to the rump was removed with electric clippers followed by two 5-10 minute applications of a chemical depilatory. A grid of four areas was demarcated with a pen on both sides of the spine at levels corresponding to mid back and rump.
# Undiluted HSV-1 virus stock (0.035 ml) was applied to each different area and introduced through the skin at well-spaced sites at ten activations of a six-pronged spring-loaded vaccination instrument (Sterneedle, Pan Ray Division, Ormont Drug, Englewood, N.J.). The day of inoculation is Day 0. Approximately 250 mg of drug or placebo was applied to the areas according to the dosing regimen on Days 1, 2 and 3. Eight guinea pigs were used during the experiments allowing eight comparisons between each drug and its placebo.
# On Day 4 regrown hair on the dorsum of the guinea pigs was removed with one 3-4 minute application of a chemical depilatory. HSV lesions were counted and Polaroid pictures of the animals' backs were taken. The animals were sacrificed using CO2 gas and the full thickness skin of the back was removed by dissection. The square of the skin from each of the four treatment areas was placed into 15 mls of tissue culture medium with 2% FBS in an ice bath. The samples were then homogenized in a stomacher Lab Blender 80 (Tekmar Co.). Debris was pelleted by centrifugation and the supernatants collected and frozen at −70° C. until assay for infectivity by plaque formation in VERO cells.
# The mean and standard deviation for number of lesions, total lesion area and lesion virus titer were computed. Paired data (drug/vehicle) were evaluated by the Wilcoxon signed-rank test using percent differences between log10 derivatives of mean lesions severity at drug-treated sites compared to the vehicle-treated sites.
# Prodrug 2 was formulated as described in Example 1. One Hartley guinea pig was inoculated with HSV-1 as described in Example 1. The guinea pig was treated with Prodrug 2 according to the protocol used in Example 1 for Prodrug 1.
# [2] = tested on: pig liver esterase; experiment: Incubation with pig liver esterase in phosphate buffered D2O, followed by NMR; assay type: in vitro ADME
# Excerpt: This assay is described in Glazier, WO 91/19721 entitled “Phosphorus Prodrugs” and can be used to determine suitable hydroxyl or amino protecting groups which can be cleaved in vivo. The entire teachings of […] are incorporated herein by reference. It is to be understood that there are other in vitro assays known to one of ordinary skill in the art employing esterases, amidases or enzymes capable of cleaving carbonate, carbamate, ester and amide groups which can also be used to determine suitable protecting groups.
# [3] = tested on: herpes simplex labialis; conditions: cited from earlier work
# [4] = dermal HSV-1, topical 2% formulation, Days 1-3, read Day 4, p<0.01
SMILES,"reduction in lesion area compared with placebo [1, 4]","reduction in lesion number compared with placebo [1, 4]","reduction in skin viral titres compared with placebo ([1]; dermal HSV-1, topical 2% formulation, Days 1-3, read Day 4, plaque formation in VERO cells, p<0.01)",reduction in lesion area (in words) [1],reduction in lesion number (in words) [1],reduction in lesion virus titer / skin viral titres (in words) [1],degradation products with esterase [2],effectiveness of oral administration for cold sores ([3]; oral),response of cold sores to topical treatment ([3]; topical)
COC(=O)CC(OP(=O)([O-])OCCOCn1cnc2c(=O)[nH]c(N)nc21)c1ccc(OC(=O)C(C)(C)C)cc1.[Na+] (stereo not drawn) [Prodrug 1],79%,72%,93%,dramatic reduction,dramatic reduction,dramatic reduction,degraded to acyclovir monophosphate and p-hydroxycinnamic,–,–
COC(=O)CC(OP(=O)([O-])OCCOCn1cnc2c(=O)[nH]c(N)nc21)c1ccc(OC(C)=O)cc1.[Na+] (stereo not drawn) [Prodrug 2],–,–,–,comparable reduction; also recorded: dramatic reduction,comparable reduction; also recorded: dramatic reduction,comparable reduction; also recorded: dramatic reduction,–,–,–
Nc1nc2c(ncn2COCCO)c(=O)[nH]1 [acyclovir],–,–,–,–,–,–,–,only partially effective,do not respond
